Measurements published in patent US12551482B2, “Aurora kinase inhibitors” (The Regents of the University of California, priority 2013, dated 2026).
Where two headings read alike, the source gives them in different places.

Assays:
OVKATE = assay: Cancer cell line profiling, Genomics of Drug Sensitivity Project; conditions: read-out: CD532 EC50 (uM)
WM793B = assay: as above; conditions: read-out: CD532 EC50 (uM)
huH-1 = assay: as above; conditions: Homo sapiens, HuH-1, read-out: CD532 EC50 (uM)
UACC-257 = assay: as above; conditions: Homo sapiens, UACC-257, read-out: CD532 EC50 (uM)
HSC-4 = assay: as above; conditions: Homo sapiens, HSC-4, read-out: CD532 EC50 (uM)
ACN = assay: as above; conditions: read-out: CD532 EC50 (uM)
NB12 = assay: as above; conditions: read-out: CD532 EC50 (uM)
HGC-27 = assay: as above; conditions: Homo sapiens, HGC-27, read-out: CD532 EC50 (uM)
NB13 = assay: as above; conditions: read-out: CD532 EC50 (uM)
SK-MEL-30 = assay: as above; conditions: Homo sapiens, SK-MEL-30, read-out: CD532 EC50 (uM)
OVMIU = assay: as above; conditions: read-out: CD532 EC50 (uM)
MYCN [1] = assay: MYCN protein by immunoblot in SHEP cells expressing MYCN; format: cell-based
Protocol: (§1) Neuroblastoma tumor cell lines were obtained from the University of California San Francisco Cell Culture Facility (Kelly, SK-N-BE2, and SH-EP). SMS-KCN, SHEP MYCN^wt and MYCN^T58A/S62A cells were obtained. All cells were grown in RPMI with 10% FBS. Neuroblastoma cells were harvested and lysed with Cell Signaling Lysis buffer+1% SDS, sonicated and supernatants boiled in LDS sample buffer (Invitrogen). Western blots were performed as described previously (Chanthery et al., 2012), with primary antibodies to MYCN (ab24193, Abcam), Histone H3, P-Histone H3 (S10), Aurora A (Cell signaling), and GAPDH (Millipore). Western blot quantitation performed with ImageJ software.
MYCN is believed to be sequentially phosphorylated at S62/T58 before it is targeted for degradation by ubiquitination, and only phosphorylated, ubiquitinated MYCN is protected from degradation by Aurora A (Gustafson and Weiss, 2010; Otto et al., 2009).

EFO-21 = assay: Cancer cell line profiling, Genomics of Drug Sensitivity Project; conditions: Homo sapiens, EFO-21, read-out: CD532 EC50 (uM)
MYCN [2] = assay: Dose response immunoblot for MYCN in MYCN-amplified neuroblastoma cell lines (SK-N-BE(2), SMS-KCN, Kelly); format: cell-based; conditions: multiple cell lines, 24 hrs (FIGS. 1D and 7)
Protocol: as §1

A253 = assay: Cancer cell line profiling, Genomics of Drug Sensitivity Project; conditions: Homo sapiens, A253, read-out: CD532 EC50 (uM)
23132/87 = assay: as above; conditions: read-out: CD532 EC50 (uM)
GI-ME-N = assay: as above
MYCN [3] = assay: MYCN protein by western blot in SK-N-BE(2) cells; format: cell-based
Protocol: as §1

KLE = assay: Cancer cell line profiling, Genomics of Drug Sensitivity Project; conditions: Homo sapiens, read-out: CD532 EC50 (uM)
MKN45 = assay: as above
IGR-37 = assay: as above; conditions: Homo sapiens, IGR-37, read-out: CD532 EC50 (uM)
AsPC-1 = assay: as above; conditions: Homo sapiens, ASPC1, read-out: CD532 EC50 (uM)
5637 = assay: as above; conditions: read-out: CD532 EC50 (uM)
MZ2-MEL. = assay: as above; conditions: read-out: CD532 EC50 (uM)
A431 = assay: as above; conditions: Homo sapiens, A-431, read-out: CD532 EC50 (uM)
8505C = assay: as above; conditions: Homo sapiens, read-out: CD532 EC50 (uM)
JHH-1 = assay: as above; conditions: JHH1, read-out: CD532 EC50 (uM)
RF-48 = assay: as above; conditions: RF48, read-out: CD532 EC50 (uM)

O=C(Nc1ccc(Nc2nccc(Nc3cc(C4CCCC4)[nH]n3)n2)cc1)Nc1cccc(C(F)(F)F)c1 [CD532, 1-(4-((4-((5-cyclopentyl-1H-pyrazol-3-yl)amino)pyrimidin-2-yl)amino)phenyl)-3-(3-(trifluoromethyl)phenyl)urea]
EC50 (OVKATE): 6 µM
EC50 (WM793B): 0.705 µM
EC50 (huH-1): 1.38 µM
EC50 (UACC-257): 0.607 µM
EC50 (HSC-4): 0.885 µM
EC50 (ACN): 0.884 µM
EC50 (NB12): 0.293 µM
EC50 (HGC-27): 0.83 µM
EC50 (NB13): 1.02 µM
EC50 (SK-MEL-30): 0.323 µM
EC50 (OVMIU): 0.869 µM
wild-type MYCN protein (MYCN [1]; SHEP cells expressing MYCNWT, 24 hrs, increasing concentrations (FIG. 12C)): dose-dependent decrease in wild-type MYCN protein
MYCNT58A/S62A protein (MYCN [1]; SHEP cells expressing non-phosphorylatable MYCNT58A/S62A, 24 hrs (FIG. 12C)): partially protected from degradation
EC50 (EFO-21): 1.87 µM
MYCN protein, dose response (MYCN [2]): dose dependent loss of MYCN protein
EC50 (A253): 24.5 µM
EC50 (23132/87): 0.471 µM
EC50 (GI-ME-N; read-out: CD532 EC50 (uM), GI-ME-N cell line, Nervous System): 0.428 µM
EC50 (GI-ME-N; read-out: CD532 EC50, GI-ME-N cell line, Nervous System): 0.812 µM
time dependence of MYCN protein loss (MYCN [3]; 1 μM, time course (FIG. 12A)): clear and time-dependent loss of MYCN protein
IC50 (MYCN [3]; FIG. 1D, read-out: IC50 for on-target MYCN knockdown): ~250 nM
EC50 (KLE): 2.99 µM
EC50 (MKN45; Homo sapiens, MKN-45, read-out: CD532 EC50 (uM), MKN45 cell line, Stomach): 0.456 µM
EC50 (MKN45; read-out: CD532 EC50, MKN45 cell line, Stomach): 0.26 µM
EC50 (IGR-37): 0.547 µM
EC50 (AsPC-1): 5.41 µM
EC50 5637: 0.49 µM
EC50 (MZ2-MEL.): 0.434 µM
EC50 (A431): 0.364 µM
EC50 (8505C): 0.662 µM
EC50 (JHH-1): 0.295 µM
EC50 (RF-48): 0.903 µM
